Results taken from paper PMC12027554, “Inhibition of ABCG2 by SCO-101 Enhances Chemotherapy Efficacy in Cancer” (International Journal of Molecular Sciences, 2025).
pIC50: −log10 of the molar value.

What was measured:
HT29PAR cells [1] = test: Cell viability assay (MTT / CCK-8), drug-sensitive HT29; type: cell-based, human; conditions: Homo sapiens, HT-29, 72 h
Procedure: (§1) Cells were seeded at a density of 0.2–1 × 10^4 cells/well into 96-well plates. One day after seeding, treatments were performed in triplicate for 72 h, or as otherwise indicated in the relevant panel/figure legend and kept at 37 °C/5% CO2. Growth medium alone (“untreated” cells) or DMSO was used as a control.
(§2) For MTT assays, media were replaced at the final timepoint with 100 μL of 1:10 MTT reagent (0.5 mg/mL in PBS) diluted in growth medium, and plates were incubated for 3 h. A total of 100 μL/well of stop buffer (50 g Sodium Dodecyl Sulfate, 245 mL ddH2O, 5 mL 1N HCl) was added and plates incubated for 24 h to let colored formazan crystals develop. Optical densities (ODs) were measured with a PowerWave^TM Microplate spectrophotometer (BioTek, Winooski, VT, USA) at 570 nm and 670 nm (background).
(§3) For CCK-8 assays, 100 μL of 1:10 CCK-8 reagent (pevonedistat-treated HT29 cells) diluted in medium was added to each well and cells incubated for 1–2 h at 37 °C. OD values were measured at 450 nm with a VersaMax microplate spectrophotometer (Molecular Devices, San Jose, CA, USA).
(§4) Background values were subtracted prior to further analysis. The percentage of cell viability was expressed as relative values versus untreated cells as determined by the various assays. EC50/IC50 values were calculated using GraphPad Prism (v10.4.1) and the in-built non-linear regression [log (inhibitor) vs. response—variable slope (four parameters)] calculation. For determination of synergy scores, the online tool SynergyFinder+ (https://synergyfinder.org access date 15 February 2025) was employed following 4 × 4- or 6 × 6-matrix dose-escalation cell viability experiments. Doses of drugs are indicated in the relevant figure legends and ranges have been chosen based on the response of cells to single-drug dose-dependent experiments. Synergy scores were calculated using the ZIP model, which takes the advantages of both the Loewe additivity and the Bliss independence models, aiming at a systematic assessment of various types of drug interaction patterns that may arise in a high-throughput drug combination screening.

MRP2/ABCC2 = target: T1, MRP2/ABCC2 (Homo sapiens, UniProt Q92887); test: Efflux transporter inhibition, vesicular uptake into inside-out membrane vesicles (ABCC2); type: biochemical; conditions: 100 μM 5(6)-carboxy-2′,7′-dichlorofluorescein
T1 construct: purchased SOLVO biotechnology, Budapest, Hungary
T1 sequence (Q92887 whole entry): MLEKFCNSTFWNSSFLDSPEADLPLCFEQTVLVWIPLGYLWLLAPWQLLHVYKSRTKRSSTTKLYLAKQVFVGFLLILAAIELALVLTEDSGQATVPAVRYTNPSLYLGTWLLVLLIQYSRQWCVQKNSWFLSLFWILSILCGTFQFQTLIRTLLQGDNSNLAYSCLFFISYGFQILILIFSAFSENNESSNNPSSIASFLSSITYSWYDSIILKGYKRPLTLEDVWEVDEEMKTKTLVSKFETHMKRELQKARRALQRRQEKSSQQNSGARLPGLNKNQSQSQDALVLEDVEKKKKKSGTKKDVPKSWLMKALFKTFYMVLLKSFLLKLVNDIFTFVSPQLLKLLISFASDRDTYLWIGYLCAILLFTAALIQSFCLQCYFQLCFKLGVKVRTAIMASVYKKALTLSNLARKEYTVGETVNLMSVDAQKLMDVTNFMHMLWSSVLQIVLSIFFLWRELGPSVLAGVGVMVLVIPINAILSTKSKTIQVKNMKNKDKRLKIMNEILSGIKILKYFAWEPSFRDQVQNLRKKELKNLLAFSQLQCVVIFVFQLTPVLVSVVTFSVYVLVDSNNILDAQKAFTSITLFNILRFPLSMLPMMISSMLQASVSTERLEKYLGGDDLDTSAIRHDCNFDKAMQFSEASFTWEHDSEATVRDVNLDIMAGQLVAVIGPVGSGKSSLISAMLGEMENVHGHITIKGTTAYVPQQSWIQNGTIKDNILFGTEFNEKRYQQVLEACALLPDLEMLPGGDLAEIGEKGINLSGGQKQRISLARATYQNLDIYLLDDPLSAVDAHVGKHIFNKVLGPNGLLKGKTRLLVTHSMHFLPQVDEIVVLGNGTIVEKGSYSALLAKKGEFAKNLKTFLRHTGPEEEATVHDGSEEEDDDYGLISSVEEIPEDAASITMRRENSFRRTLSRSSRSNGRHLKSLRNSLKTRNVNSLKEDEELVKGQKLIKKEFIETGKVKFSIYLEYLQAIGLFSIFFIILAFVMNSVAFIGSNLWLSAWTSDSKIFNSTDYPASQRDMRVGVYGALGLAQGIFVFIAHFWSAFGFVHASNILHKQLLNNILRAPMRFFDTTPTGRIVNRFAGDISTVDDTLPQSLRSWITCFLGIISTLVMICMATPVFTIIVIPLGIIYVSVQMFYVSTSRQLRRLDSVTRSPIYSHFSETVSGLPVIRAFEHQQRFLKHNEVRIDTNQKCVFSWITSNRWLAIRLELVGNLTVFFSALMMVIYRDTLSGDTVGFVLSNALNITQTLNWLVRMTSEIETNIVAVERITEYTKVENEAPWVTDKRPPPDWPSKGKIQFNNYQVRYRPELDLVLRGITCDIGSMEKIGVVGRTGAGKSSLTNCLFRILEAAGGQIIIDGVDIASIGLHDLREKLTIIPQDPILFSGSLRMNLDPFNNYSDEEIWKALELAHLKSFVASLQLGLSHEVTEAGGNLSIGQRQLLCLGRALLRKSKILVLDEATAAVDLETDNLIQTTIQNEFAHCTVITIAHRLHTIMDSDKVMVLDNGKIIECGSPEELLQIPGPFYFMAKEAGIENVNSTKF
Procedure: Efflux transporter inhibition was evaluated by measuring vesicular uptake into inside-out membrane vesicles (SOLVO biotechnology, Budapest, Hungary) expressing a single human ABC transporter (0.67 mg/mL ABCB1; 0.67 mg/mL ABCC2; 0.33 mg/mL ABCG2 membrane protein) of a probe substrate (1 μM N-methyl-quinidine for ABCB1; 100 μM 5(6)-carboxy-2′,7′-dichlorofluorescein for ABCC2; 1 μM Eestrone-3-sulfate for ABCG2) in the presence of SCO-101 with and without ATP (4 mM) in 96-well plate format. Control solvent and control inhibitors (4–60 μM verapamil for […]; 1–15 μM sulfasalazine for ABCG2; 5.5–150 μM benzbromarone for ABCC2) were incubated in parallel. Vesicular uptake was conducted at 37 °C in incubation buffer (10 mM Tris-HCl, pH 7.4, 10 mM MgCl2, 250 mM sucrose) and terminated after 1 min (ABCB1 and ABCG2) or 5 min (ABCC2) by adding ice-cold washing buffer (10 mM Tris-HCl, pH 7.4, 100 mM NaCl, 250 mM sucrose). […] Probe quantification was conducted using LC-MS/MS peak areas (solvent control with ATP − AMP = 100%). […] The remaining transporter activity % was calculated according to the formula below, and fitting was performed using GraphPad Prism: A%=AATP,sample−AAMP,sample/AATP,solvent−AAMP,solvent

HT29SN-38 cells [2] = test: Colony formation assay; type: cell-based, human; conditions: 7 days
Procedure: Cells were trypsinized and counted, and 400 cells/well were seeded in 24-well plates. Drug treatments were performed 24 h after seeding for a total duration of 6 (LoVo) or 7 (HT29) days. Next, media were removed, and cells were washed with PBS and stained with 250 μL Crystal Violet solution for 10 min. Crystal Violet was then removed, plates rinsed with tap water, images captured, and colonies counted using the ImageJ software (version 1.54p). Survival fraction and plating efficiency (PE) were calculated as follows: Survival Fraction=number of colonies/number of cells plated ∗ PE PE=number of colonies formed in control/number of cells seeded

MDR1/ABCB1 = MDR1/ABCB1 (Homo sapiens, UniProt P08183); test: Bidirectional transport of digoxin across Caco-2 cell monolayers; type: cell-based; set-up: endogenous in cells; host or cells: Caco-2; conditions: Caco-2 monolayers, 50 µM SCO-101
MDR1/ABCB1, sequence (P08183 whole entry): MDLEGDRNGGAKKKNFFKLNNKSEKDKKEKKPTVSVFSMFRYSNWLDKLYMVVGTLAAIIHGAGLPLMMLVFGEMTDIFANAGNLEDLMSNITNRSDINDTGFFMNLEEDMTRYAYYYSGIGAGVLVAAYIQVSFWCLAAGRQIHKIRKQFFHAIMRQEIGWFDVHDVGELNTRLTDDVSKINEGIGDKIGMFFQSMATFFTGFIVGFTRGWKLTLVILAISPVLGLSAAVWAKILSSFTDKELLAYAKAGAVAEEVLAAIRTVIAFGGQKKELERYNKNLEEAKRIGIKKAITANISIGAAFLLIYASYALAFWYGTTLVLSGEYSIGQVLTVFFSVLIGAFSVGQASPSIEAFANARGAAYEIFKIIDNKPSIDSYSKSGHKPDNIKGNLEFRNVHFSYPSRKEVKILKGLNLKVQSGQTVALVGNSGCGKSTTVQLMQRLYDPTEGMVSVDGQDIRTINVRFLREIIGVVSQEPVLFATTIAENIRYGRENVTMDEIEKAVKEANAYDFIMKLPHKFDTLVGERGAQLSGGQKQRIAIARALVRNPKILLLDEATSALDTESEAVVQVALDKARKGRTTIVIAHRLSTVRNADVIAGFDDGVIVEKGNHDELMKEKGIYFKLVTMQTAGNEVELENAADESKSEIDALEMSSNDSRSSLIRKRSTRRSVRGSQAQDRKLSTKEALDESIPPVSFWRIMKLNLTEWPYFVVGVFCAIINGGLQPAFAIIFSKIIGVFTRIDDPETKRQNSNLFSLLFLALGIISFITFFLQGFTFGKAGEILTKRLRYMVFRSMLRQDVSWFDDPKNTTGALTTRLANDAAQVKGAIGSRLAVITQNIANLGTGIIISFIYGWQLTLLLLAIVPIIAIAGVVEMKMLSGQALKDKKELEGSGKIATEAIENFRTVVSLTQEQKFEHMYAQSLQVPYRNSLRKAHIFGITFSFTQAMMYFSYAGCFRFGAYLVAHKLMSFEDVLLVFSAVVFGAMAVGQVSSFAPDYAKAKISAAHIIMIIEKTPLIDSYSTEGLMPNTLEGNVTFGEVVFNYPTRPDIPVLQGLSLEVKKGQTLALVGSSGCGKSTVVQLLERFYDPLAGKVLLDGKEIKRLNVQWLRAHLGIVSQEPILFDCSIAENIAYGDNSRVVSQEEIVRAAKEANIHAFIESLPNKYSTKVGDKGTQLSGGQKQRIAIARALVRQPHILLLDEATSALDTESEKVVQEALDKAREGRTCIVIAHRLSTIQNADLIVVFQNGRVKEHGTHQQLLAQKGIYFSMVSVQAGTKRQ
Procedure: Bidirectional transport experiments (basolateral-to-apical and apical-to-basolateral) with the ABCG2 substrate estrone-3-sulfate and the MDR1/ABCB1 substrate digoxin were performed in Caco-2 cell monolayers as previously described.

HT29PAR cells [3] = test: Cellular dye efflux assay (Hoechst 33342), parental cells; type: cell-based, human; conditions: SCO-101 20 µM, Ko-143 1 µM
Procedure: Twenty-four hours before the experiments, cells were seeded into 96-well Nunclon^TM plates at a density of 6000 (HT29), 7000 (PANC-1) or 8000 (LoVo) cells/well. The following day, cells were treated in triplicate with the relevant drugs at the indicated concentrations for 1 h. Next, 5 μg/mL Hoechst 33342 was added to the wells, and plates incubated at 37 °C for 30 min^−1 h. Cells were washed with cold PBS, treatments re-added and plates re-incubated at 37 °C for 30 min to 1 h. Plates were analyzed using a Celigo® (Nexcelom Bioscience, Lawrence, MA, USA) imaging cytometer. Data are expressed as percentages of fluorescence intensity, calculated through the following formula: % fluorescence intensity=Mean fluorescence intensity of sample/Mean fluorescence intensity of parental control×100
Fluorescent images were captured with an Olympus® IX71/TH4-200 microscope equipped with an Olympus® DP72 camera (Shinjuku, Tokyo, Japan), and cells were seeded at a 1.5 × 10^5 cells/well density and treated as described above.

HT29SN-38 cells [4] = test: Cell viability assay (MTT / CCK-8), SN-38-resistant HT29; type: cell-based, human
Procedure: as §1, §2, §3, §4

`O=C(Nc1cc(C(F)(F)F)cc(C(F)(F)F)c1)Nc1ccc(Br)cc1-c1nnn[nH]1` [SCO-101, N-[4-Bromo-2-(1H-1,2,3,4-tetrazol-5-yl)phenyl]-N′-[3,5-bis(trifluoromethyl)phenyl]urea] was tested, and the pIC50 (HT29PAR cells [1]) was under 4.60, the pIC50 (MRP2/ABCC2) was 4.62 and the “colony formation ability (survival fraction)” value (HT29SN-38 cells [2]; 10 µM SCO-101 alone) was “did not affect”. The “colony formation ability, SCO-101 in combination with SN-38” value (HT29SN-38 cells [2]; SCO-101 0–20 µM + SN-38 0.01 μM, vs SCO-101 alone) was “significant reduction”, the “transport of the MDR1/ABCB1 substrate digoxin” value (MDR1/ABCB1) was “only a limited difference” and the H33342 dye accumulation (HT29PAR cells [3]) was “No change”. The pIC50 (HT29SN-38 cells [4]; Homo sapiens, HT-29, 72 h) was under 4.60, the “cell viability, SCO-101 in combination with SN-38” value (HT29SN-38 cells [4]; SCO-101 0–50 µM + SN-38 0.08 μM) was “re-sensitization” and the “cell viability after 24 h combination treatment and drug washout” value (HT29SN-38 cells [4]; SCO-101 15 μM + SN-38 0.5 μM, washout 48 h or 120 h) was “significant cytotoxic effect”. For the same compound, the “cell viability after 24 h single treatment and drug washout” value (HT29SN-38 cells [4]; SCO-101 15 μM or SN-38 0.5 μM alone, washout 48 h or 120 h) was “did not affect cell viability”.
